Assay results from patent US20240360107A1, “AN EIF4A INHIBITOR WITH A NOVEL MECHANISM OF ACTION” (ARIZONA BOARD OF REGENTS ON BEHALF OF THE UNIVERSITY OF …, priority 2021, published 2024).

How the values were obtained:
Assay in all cases: malachite green ATPase assay, eIF4A mutant
Format in all cases: biochemical
eIF4A T158A mutant = target: T1, eIF4A T158A mutant (Homo sapiens, UniProt P60842, T158A)
T1 construct: 6xHis with TEV protease site (N, cleaved yes); made in house; host or cells: E. coli BL21-CodonPlus
Protocol: (§1) Furthermore, T158 is predicted to form a hydrogen bond to the […] of the 6-nitro quinoline substitution of compound 28. The ability of the 6-nitro group to form two strong interactions with the binding pocket of eIF4A is the most likely explanation for why this substitution afforded 28 such a large gain in potency for compound 28 compared to other analogs in the inhibitor series. Mutagenesis and recombinant production of mutant eIF4A protein was performed to confirm the docking pose and predicted interactions between compound 28 and its eIF4A binding pocket (FIG. 6D).
(§2) ATPase assay. Recombinant WT or mutant eIF4A was added to a clear bottom 384 well plate (Greiner) in ATPase buffer (20 mM Tris pH 7.4, 80 mM KCl, 2.5 mM MgCl2, 1 mM DTT, 1% glycerol). Compounds were added and the plate was incubated at 37° C. for 20 min. ATP/RNA solution was added to afford a 20 μL per well reaction volume with 750 nM eIF4A, 250 μM ATP, and 0.25 mg/mL Yeast RNA (Sigma) for the initial screen and dose responses, and varying concentrations of ATP and RNA for the kinetic assays. The plate was incubated for 4 h at 37° C. for the initial screen and dose responses, and at seven time points (1 hour-7 hours) for kinetic assays. 0.04% v/v (final concentration) Tween-20 was added to a Malachite Green solution, and the Malachite Green (40 μL per well) was added. The solution was incubated for 5 minutes at room temperature and Absorbance at 660 nm was read on a SpectraMax iD5 plate reader (Molecular Devices).

eIF4A R110M mutant = target: T2, eIF4A R110M mutant (Homo sapiens, UniProt P60842, R110M)
T2 construct: 6xHis with TEV protease site (N, cleaved yes); made in house; host or cells: E. coli BL21-CodonPlus
Protocol: as §1, §2

eIF4A R110K mutant = target: T3, eIF4A R110K mutant (Homo sapiens, UniProt P60842, R110K)
T3 construct: 6xHis with TEV protease site (N, cleaved yes); made in house; host or cells: E. coli BL21-CodonPlus
Protocol: as §1, §2

eIF4A R110E mutant = target: T4, eIF4A R110E mutant (Homo sapiens, UniProt P60842, R110E)
T4 construct: 6xHis with TEV protease site (N, cleaved yes); made in house; host or cells: E. coli BL21-CodonPlus
Protocol: as §1, §2

eIF4A R110L mutant = target: T5, eIF4A R110L mutant (Homo sapiens, UniProt P60842, R110L)
T5 construct: 6xHis with TEV protease site (N, cleaved yes); made in house; host or cells: E. coli BL21-CodonPlus
Protocol: as §1, §2

eIF4A T158V mutant = target: T6, eIF4A T158V mutant (Homo sapiens, UniProt P60842, T158V)
T6 construct: 6xHis with TEV protease site (N, cleaved yes); made in house; host or cells: E. coli BL21-CodonPlus
Protocol: as §1, §2

T5 sequence (P60842 whole entry R110L): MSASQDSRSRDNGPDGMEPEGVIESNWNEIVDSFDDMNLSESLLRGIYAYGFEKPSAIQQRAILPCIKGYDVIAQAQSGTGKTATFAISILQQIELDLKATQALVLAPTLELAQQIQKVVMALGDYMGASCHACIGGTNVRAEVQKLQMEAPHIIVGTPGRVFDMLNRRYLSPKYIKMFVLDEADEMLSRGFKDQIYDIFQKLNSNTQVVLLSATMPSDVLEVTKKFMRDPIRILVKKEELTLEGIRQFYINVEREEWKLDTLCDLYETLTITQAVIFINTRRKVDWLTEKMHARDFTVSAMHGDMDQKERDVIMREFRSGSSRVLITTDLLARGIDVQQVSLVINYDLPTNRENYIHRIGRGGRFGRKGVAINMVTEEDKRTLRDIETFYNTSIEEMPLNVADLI
T6 sequence (P60842 whole entry T158V): as the sequence (P60842 whole entry R110L) above, with L110R, T158V counted along it
T1 sequence (P60842 whole entry T158A): as the sequence (P60842 whole entry R110L) above, with L110R, T158A counted along it
T3 sequence (P60842 whole entry R110K): as the sequence (P60842 whole entry R110L) above, with L110K counted along it
T4 sequence (P60842 whole entry R110E): as the sequence (P60842 whole entry R110L) above, with L110E counted along it
T2 sequence (P60842 whole entry R110M): as the sequence (P60842 whole entry R110L) above, with L110M counted along it

With `CCCCc1ccc(-c2ccc(-c3cc(C(=O)O)c4cc([N+](=O)[O-])ccc4n3)o2)cc1` [Compound 28, 2-(5-(4-butylphenyl)furan-2-yl)-6-nitroquinoline-4-carboxylic acid] the “potency against eIF4A mutant in ATPase assay” value (from here on “potency against eIF4A mutant”) (eIF4A T158A mutant) was “lost all potency”, the “potency against eIF4A mutant” value (eIF4A R110M mutant) was “lost all potency” and the “potency against eIF4A mutant” value (eIF4A R110K mutant) was “remained moderately potent”. For the same molecule, the “potency against eIF4A mutant” value (eIF4A R110E mutant) was “lost all potency”, the “potency against eIF4A mutant” value (eIF4A R110L mutant) was “lost all potency” and the “potency against eIF4A mutant” value (eIF4A T158V mutant) was “lost all potency”.
